# From patent US20250346585A1 (Alexion Pharmaceuticals, Inc., priority 2022, published 2025)
# Read-outs that look alike come from different tables or passages of the source.
# Target: Human complement C1s enzyme (Homo sapiens (Human), UniProt P09871)
# Experiment: Human C1s enzyme assay
# Assay type: biochemical
# Conditions: read-out: IC50 (Stars)
# Method: Human complement C1s enzyme (purified from human serum, Complement Technology, Inc.) at 1.16 nM final concentration was incubated with test compound at various concentrations for 5 min at room temperature in 50 mM Tris, 1 M NaCl, pH 7.5. A synthetic substrate Z-L-Lys-SBzl and DTNB (Ellman's reagent) were added to final concentrations of 100 μM each. Absorbance at 405 nm (A405) was recorded at 30 second intervals for 30 min using a microplate spectrophotometer. IC50 values were calculated by nonlinear regression of complement C1s reaction rates as a function of test compound concentration.
# [1] = Human C1s enzyme assay of Example 3
# [2] = Human complement C1s enzyme 1.16 nM, substrate Z-L-Lys-SBzl 100 μM, assay of Example 3
# Human complement C1s enzyme, sequence (P09871 438-688 limits assumed): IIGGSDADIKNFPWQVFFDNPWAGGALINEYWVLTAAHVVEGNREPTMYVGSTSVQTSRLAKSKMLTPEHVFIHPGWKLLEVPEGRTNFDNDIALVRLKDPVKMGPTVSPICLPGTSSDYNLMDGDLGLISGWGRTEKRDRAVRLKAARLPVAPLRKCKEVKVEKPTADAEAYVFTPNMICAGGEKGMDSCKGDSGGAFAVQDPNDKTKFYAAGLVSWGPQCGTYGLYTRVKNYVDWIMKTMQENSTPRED
# Human complement C1s enzyme, sequence (P09871 16-437 partner limits assumed): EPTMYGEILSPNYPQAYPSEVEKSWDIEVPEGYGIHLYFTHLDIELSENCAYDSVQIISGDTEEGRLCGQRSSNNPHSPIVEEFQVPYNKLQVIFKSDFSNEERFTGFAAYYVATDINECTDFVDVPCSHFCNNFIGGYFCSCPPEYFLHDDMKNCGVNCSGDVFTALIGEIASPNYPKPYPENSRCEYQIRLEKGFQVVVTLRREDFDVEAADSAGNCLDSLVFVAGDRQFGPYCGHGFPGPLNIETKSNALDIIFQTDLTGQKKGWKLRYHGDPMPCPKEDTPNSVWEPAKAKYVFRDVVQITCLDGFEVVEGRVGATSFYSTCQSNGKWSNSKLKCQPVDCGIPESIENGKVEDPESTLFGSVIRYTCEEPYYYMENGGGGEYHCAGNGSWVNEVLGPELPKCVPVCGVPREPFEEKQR
IC50 [1] [nM],IC50 [2] [nM],Compound
< 100,,"COC[C@@H]1C[C@@H](C(=O)N[C@H](C)c2cc(C(=N)N)cs2)N(C(=O)CNC(=O)c2ccc(Oc3ccc(F)cc3)cc2)C1 (relative stereo) [Compound 79, (2S,4R*)—N—((R)-1-(4-carbamimidoylthiophen-2-yl)ethyl)-1-((4-(4-fluorophenoxy)benzoyl)glycyl)-4-(methoxymethyl)pyrrolidine-2-carboxamide]"
< 100,,"COC[C@H]1C[C@@H](C(=O)N[C@H](C)c2cc(C(=N)N)cs2)N(C(=O)CNC(=O)c2ccc(Oc3ccc(F)cc3)cc2)C1 (relative stereo) [Compound 80, (2S,4S*)—N—((R)-1-(4-carbamimidoylthiophen-2-yl)ethyl)-1-((4-(4-fluorophenoxy)benzoyl)glycyl)-4-(methoxymethyl)pyrrolidine-2-carboxamide]"
< 100,,"C[C@@H](NC(=O)[C@@H]1C[C@@H](C2OCCCO2)CN1C(=O)CNC(=O)c1ccc(Oc2ccc(F)cc2)cc1)c1cc(C(=N)N)cs1 (relative stereo) [Compound 160, (2S,4R*)—N—((R)-1-(4-carbamimidoylthiophen-2-yl)ethyl)-4-(1,3-dioxan-2-yl)-1-((4-(4-fluorophenoxy)benzoyl)glycyl)pyrrolidine-2-carboxamide]"
< 100,,"C[C@@H](NC(=O)[C@@H]1C[C@H](C2OCCCO2)CN1C(=O)CNC(=O)c1ccc(Oc2ccc(F)cc2)cc1)c1cc(C(=N)N)cs1 (relative stereo) [Compound 161, (2S,4S*)—N—((R)-1-(4-carbamimidoylthiophen-2-yl)ethyl)-4-(1,3-dioxan-2-yl)-1-((4-(4-fluorophenoxy)benzoyl)glycyl)pyrrolidine-2-carboxamide]"
,< 100,"COC[C@@H]1C[C@@H](C(=O)N[C@H](C)c2cc(C(=N)N)cs2)N(C(=O)CNC(=O)c2ccc3oc4ccccc4c3c2)C1 (relative stereo) [Compound 295, (2S,4R*)—N—((R)-1-(4-carbamimidoylthiophen-2-yl)ethyl)-1-((dibenzo[b,d]furan-2-carbonyl)glycyl)-4-(methoxymethyl)pyrrolidine-2-carboxamide]"
< 100,,"CC(NC(=O)[C@@H]1CC2(CN1C(=O)CNC(=O)c1ccc(-c3ccc(Cl)cn3)cc1)OCCO2)c1cc(C(=N)N)cs1 (stereo in doubt) [Compound 151, (S)—N—((S)-1-(4-carbamimidoylthiophen-2-yl)ethyl)-7-((4-(5-chloropyridin-2-yl)benzoyl)glycyl)-1,4-dioxa-7-azaspiro[4.4]nonane-8-carboxamide]"
< 100,,"N=C(N)c1csc(CNC(=O)[C@@H]2C[C@@H](OC(F)F)CN2C(=O)CNC(=O)c2ccc(Oc3ccc(F)cc3)cc2)c1 [Compound 3, (2S,4R)—N-((4-carbamimidoylthiophen-2-yl)methyl)-4-(difluoromethoxy)-1-((4-(4-fluorophenoxy)benzoyl)glycyl)pyrrolidine-2-carboxamide]"
< 100,,"C[C@@H](NC(=O)[C@@H]1C[C@]2(C)C[C@@H]2N1C(=O)CNC(=O)c1ccc2c(c1)-c1ccccc1C2(F)F)c1cc(C(=N)N)cs1 [Compound 4, (1S,3S,5S)—N—((R)-1-(4-carbamimidoylthiophen-2-yl)ethyl)-2-((9,9-difluoro-9H-fluorene-3-carbonyl)glycyl)-5-methyl-2-azabicyclo[3.1.0]hexane-3-carboxamide]"
< 100,,"C[C@@H](NC(=O)[C@@H]1C[C@@H](OC(F)F)CN1C(=O)CNC(=O)c1ccc(Oc2ccc(C(F)(F)F)cc2)cc1)c1cc(C(=N)N)cs1 [Compound 5, (2S,4R)—N—((R)-1-(4-carbamimidoylthiophen-2-yl)ethyl)-4-(difluoromethoxy)-1-((4-(4-(trifluoromethyl)phenoxy)benzoyl)glycyl)pyrrolidine-2-carboxamide]"
< 100,,"Cc1ccc(Oc2ccc(C(=O)NCC(=O)N3C[C@H](OC(F)F)C[C@H]3C(=O)N[C@H](C)c3cc(C(=N)N)cs3)cc2)cc1 [Compound 6, (2S,4R)—N—((R)-1-(4-carbamimidoylthiophen-2-yl)ethyl)-4-(difluoromethoxy)-1-((4-(p-tolyloxy)benzoyl)glycyl)pyrrolidine-2-carboxamide]"
< 100,,"Cc1ccc(Oc2ccc(C(=O)NCC(=O)N3[C@H]4C[C@@]4(C)C[C@H]3C(=O)N[C@H](C)c3cc(C(=N)N)cs3)cc2)cc1 [Compound 7, (1S,3S,5S)—N—((R)-1-(4-carbamimidoylthiophen-2-yl)ethyl)-5-methyl-2-((4-(p-tolyloxy)benzoyl)glycyl)-2-azabicyclo[3.1.0]hexane-3-carboxamide]"
< 100,,"C[C@@H](NC(=O)[C@@H]1C[C@@H](OC(F)F)CN1C(=O)CNC(=O)c1ccc(Oc2ccc(F)cc2)cc1)c1cc(C(=N)N)cs1 [Compound 8, (2S,4R)—N—((R)-1-(4-carbamimidoylthiophen-2-yl)ethyl)-4-(difluoromethoxy)-1-((4-(4-fluorophenoxy)benzoyl)glycyl)pyrrolidine-2-carboxamide]"

# Further lines, the molecule ahead of its results:
Compound,IC50 [1] [nM],IC50 [2] [nM]
"COC[C@H]1C[C@@H](C(=O)N[C@H](C)c2cc(C(=N)N)cs2)N(C(=O)CNC(=O)c2ccc3c(c2)-c2ccccc2C3(F)F)C1 (relative stereo) [Compound 117, (2S,4S*)—N—((R)-1-(4-carbamimidoylthiophen-2-yl)ethyl)-1-((9,9-difluoro-9H-fluorene-3-carbonyl)glycyl)-4-(methoxymethyl)pyrrolidine-2-carboxamide]",< 100,
"COC[C@@H]1C[C@@H](C(=O)N[C@H](C)c2cc(C(=N)N)cs2)N(C(=O)CNC(=O)c2ccc3c(c2)-c2ccccc2C3(F)F)C1 (relative stereo) [Compound 118, (2S,4R*)—N—((R)-1-(4-carbamimidoylthiophen-2-yl)ethyl)-1-((9,9-difluoro-9H-fluorene-3-carbonyl)glycyl)-4-(methoxymethyl)pyrrolidine-2-carboxamide]",< 100,
"COC[C@H]1C[C@@H](C(=O)N[C@H](C)c2cc(C(=N)N)cs2)N(C(=O)CNC(=O)c2ccc3oc4ccccc4c3c2)C1 (relative stereo) [Compound 219, (2S,4S*)—N—((R)-1-(4-carbamimidoylthiophen-2-yl)ethyl)-1-((dibenzo[b,d]furan-2-carbonyl)glycyl)-4-(methoxymethyl)pyrrolidine-2-carboxamide]",,< 100
"N=C(N)c1csc([C@@H](NC(=O)[C@@H]2CC3(CN2C(=O)CNC(=O)c2ccc4c(c2)-c2ccccc2C4(F)F)OCCO3)C(F)(F)F)c1 (relative stereo) [Compound 275, (S)—N—((S*)-1-(4-carbamimidoylthiophen-2-yl)-2,2,2-trifluoroethyl)-7-((9,9-difluoro-9H-fluorene-3-carbonyl)glycyl)-1,4-dioxa-7-azaspiro[4.4]nonane-8-carboxamide]",,< 100
"C[C@@H](NC(=O)[C@@H]1C[C@@H](CO)CN1C(=O)CNC(=O)c1ccc2c(c1)-c1ccccc1C2(F)F)c1cc(C(=N)N)cs1 (relative stereo) [Compound 305, (2S,4R*)—N—((R)-1-(4-carbamimidoylthiophen-2-yl)ethyl)-1-((9,9-difluoro-9H-fluorene-3-carbonyl)glycyl)-4-(hydroxymethyl)pyrrolidine-2-carboxamide]",,< 100
"C[C@@H](NC(=O)[C@@H]1C[C@H](CO)CN1C(=O)CNC(=O)c1ccc2c(c1)-c1ccccc1C2(F)F)c1cc(C(=N)N)cs1 (relative stereo) [Compound 306, (2S,4S*)—N—((R)-1-(4-carbamimidoylthiophen-2-yl)ethyl)-1-((9,9-difluoro-9H-fluorene-3-carbonyl)glycyl)-4-(hydroxymethyl)pyrrolidine-2-carboxamide]",,< 100
"N=C(N)c1csc([C@H](NC(=O)[C@@H]2CC3(CN2C(=O)CNC(=O)c2ccc4c(c2)-c2ccccc2C4(F)F)OCCO3)C(F)(F)F)c1 (single isomer, unassigned) [Compound 246, (S)—N—((R*)-1-(4-carbamimidoylthiophen-2-yl)-2,2,2-trifluoroethyl)-7-((9,9-difluoro-9H-fluorene-3-carbonyl)glycyl)-1,4-dioxa-7-azaspiro[4.4]nonane-8-carboxamide]",,< 100
"CC(NC(=O)[C@@H]1C[C@@H](Oc2ccccc2)CN1C(=O)CNC(=O)c1ccc2c(c1)-c1ccccc1C2(F)F)c1cc(C(=N)N)cs1 (stereo in doubt) [Compound 51, (2S,4R)—N—((S)-1-(4-carbamimidoylthiophen-2-yl)ethyl)-1-((9,9-difluoro-9H-fluorene-3-carbonyl)glycyl)-4-phenoxypyrrolidine-2-carboxamide]",< 100,
"CC(NC(=O)[C@@H]1CC2(CN1C(=O)CNC(=O)c1ccc(-c3ccccc3)cn1)OCCO2)c1cc(C(=N)N)cs1 (stereo in doubt) [Compound 167, (S)—N—((S)-1-(4-carbamimidoylthiophen-2-yl)ethyl)-7-((5-phenylpicolinoyl)glycyl)-1,4-dioxa-7-azaspiro[4.4]nonane-8-carboxamide]",< 100,
"C[C@@]12C[C@@H]1N(C(=O)CNC(=O)c1ccc3c(c1)CCCO3)[C@H](C(=O)NCc1cc(C(=N)N)cs1)C2 [Compound 1, (1S,3S,5S)—N-((4-carbamimidoylthiophen-2-yl)methyl)-2-((chromane-6-carbonyl)glycyl)-5-methyl-2-azabicyclo[3.1.0]hexane-3-carboxamide]",< 100,
"C[C@H](O)[C@H](O)[C@@H](O)[C@@H](O)CNCC(=O)NCCOC[C@@]12C[C@@H]1N(C(=O)CNC(=O)CCCOc1ccccc1)[C@H](C(=O)N[C@H](C)c1cc(C(=N)N)cs1)C2 [Compound 2, (1S,3S,5R)—N—((R)-1-(4-carbamimidoylthiophen-2-yl)ethyl)-2-((4-phenoxybutanoyl)glycyl)-5-((2-(2-(((2S,3S,4S,5S)-2,3,4,5-tetrahydroxyhexyl)amino)acetamido)ethoxy)methyl)-2-azabicyclo[3.1.0]hexane-3-carboxamide]",< 100,
